Patent publication US20090252754A1, “Vaccines containing the hiv tat protein as an adjuvant for the enhancement of cytotoxic t-cell responses” (priority 2003, published 2009)

Legend:
HIV-1 Env peptide pools = assay: Env-specific IFNγ Elispot on splenocytes of immunized mice; assay type: in vivo, BALB/c mice
Experimental: C57BL/6 mice (H-2^b) (Harlan Nossan, Udine, I) were immunized subcutaneously, in a single site in the back, with 25 μg of ovalbumin (Sigma) alone or in combination with native monomeric biologically active Tat protein (5 and 10 μg, respectively) in Freund's adjuvant (CFA for the first injection, and IFA for subsequent injections). BALB/c mice (H-2^d) (Harlan, Udine, Italy) were immunized subcutaneously, in a single site in the back, with 5 μg of HIV-1 Gag or Env proteins alone or in combination with 5 μg of native monomeric biologically active Tat protein or with the mutant Tatcys22 protein in Freund's adjuvant or in Alum. Each group was composed of 5 animals. Immunogens were given subcutaneously in 100 μl, at days 1, 14 and 28. Mice were sacrificed 10 days after the last boost (day 38). […]
Splenocytes were purified from spleens squeezed on filters (Cell Strainer, 70 μm, Nylon, Becton Dickinson). […] Cellular responses were also measured after in vitro re-stimulation. […]
Elispot (IFN-γ) was carried out using a commercially available kit provided by Becton Dickinson (murine IFNgamma ELISPOT Set; #551083), according to manufacturer's instructions. […] The spots were read using an Elispot reader (Elivis, Germany). The results are expressed as neat number of spot forming units (SFU)/10^6 cells: [mean number SFU of peptide treated wells minus mean number SFU of the negative control]. […]

[1] = system: ovalbumin epitopes SII, KVV, CFD on EL4 cells; assay: Ova-specific CTL responses in vaccinated mice (cytotoxicity against peptide-pulsed EL4 cells); assay type: in vivo, C57BL/6 mice; conditions: fresh splenocytes; 25 μg ovalbumin alone or with 5 and 10 μg Tat, s.c., Freund's adjuvant
Experimental: Seven- to eight-week old female C57BL/6 mice (H-2^b) (Nossan) were injected with 25 μg ovalbumin (Sigma, St. Louis, Mo.) alone or in combination with native monomeric biologically active Tat protein (5 and 10 μg) and resuspended in degassed sterile PBS in Freund's adjuvant (CFA for the first injection, and IFA for subsequent injections). Control mice were injected with PBS alone in Freund's adjuvant. Samples (100 μl) were given by subcutaneous (s.c.) injection in one site in the back. Each experimental group consisted of five mice, and the experiment was repeated twice. Mice were boosted at day 24. Two weeks after the last injection, animals were anaesthetised i.p., as described above, and sacrificed to collect spleens. Mononuclear cells from individual spleens were purified as described above, pooled and tested in cytotoxic assay against peptide-pulsed EL4 cells.
C57BL/6 mice (H-2^b) (Harlan Nossan, Udine, I) were immunized subcutaneously, in a single site in the back, with 25 μg of ovalbumin (Sigma) alone or in combination with native monomeric biologically active Tat protein (5 and 10 μg, respectively) in Freund's adjuvant (CFA for the first injection, and IFA for subsequent injections). BALB/c mice (H-2^d) (Harlan, Udine, Italy) were immunized subcutaneously, in a single site in the back, with 5 μg of HIV-1 Gag or Env proteins alone or in combination with 5 μg of native monomeric biologically active Tat protein or with the mutant Tatcys22 protein in Freund's adjuvant or in Alum. Each group was composed of 5 animals. Immunogens were given subcutaneously in 100 μl, at days 1, 14 and 28. Mice were sacrificed 10 days after the last boost (day 38). During the course of the experiments, animals were controlled twice a week at the site of injection and for their general conditions (such as liveliness, food intake, vitality, weight, motility, sheen of hair). No signs of local nor systemic adverse reactions were ever observed in mice receiving the immunogens as compared to control or untreated mice. Animal use was according to European and institutional guidelines.

[2] = system: proteasome subunits (α2, LMP2, LMP7, MECL1) in Jurkat cells; assay: Western blot of proteasome subunits in Jurkat cells expressing or treated with Tat, Tat mutants or Tat peptides; assay type: cell-based, human; conditions: Jurkat cells treated for 24 h with 0.1 μg/ml
Experimental: Jurkat T cells expressing Tat or mutated Tat (referred to as Tat22, wherein a Cys at position 22 is mutated) have previously been described (1). Cells were cultured in a medium supplemented with 800 μg/ml neomycin (Sigma, St. Louise, […].).
Cells were lysed with glass beads as previously described (4). Supernatants were ultracentrifuged for 1 h at 100,000 g and loaded into an affinity column containing a matrix derivatised with the MCP21 mAb specific for the α2 subunit of the proteasome (Affinity, Exeter, UK). Proteasomes were eluted with 25 mM Tris-HCl pH 7.5 containing 2 M NaCl, and 0.5 ml fractions were collected. Homogeneity of the eluted material was confirmed by analysis of an aliquot by SDS 12% PAGE and Coomassie blue staining of the gel. Fractions containing proteasomes were combined and dialysed against 25 mM Tris-HCl pH 7.5. Protein concentration was determined using the BCA method (Pierce Chemical, Rockford, Ill.).
Equal amounts of proteins, or equal amounts of purified proteasomes, were loaded on a 12% SDS-PAGE and electro-blotted onto Protran nitrocellulose membranes (Schleicher & Schuell, Keene, Hampshire, USA). Blots were probed with Abs specific for α2, LMP2 LMP7, MECL1, and PA28α subunits (Affinity), and developed by enhanced chemi-luminescence (ECL, Amersham Pharmacia Biotech, Uppsala, SW).

Substance: Env: HIV-1 Env protein (gp120 SF162, SEQ ID NO 267) from NIH AIDS Reagent Program
- response of fresh splenocytes to Env-derived peptide pools (HIV-1 Env peptide pools; fresh splenocytes, IFN-γ Elispot (data not shown)): did not respond
- number of Env-derived peptide pools responded to (HIV-1 Env peptide pools; vaccinated BALB/c mice): 8

Substance: ovalbumin
- recognition of EL4 target cells pulsed with cryptic CFD epitope [1]: did not recognise
- recognition of EL4 target cells pulsed with immunodominant SII epitope [1]: recognised
- recognition of EL4 target cells pulsed with subdominant KVV epitope [1]: did not recognise

Substance: 47-86: peptide of amino acids 47-86 of wild-type Tat (SEQ ID NO 285) (YGRKKRRQRRRPPQGSQTHQVSLSKQPTSQSRGDPTGPKE; Human immunodeficiency virus)
- LMP2 expression in total cell lysates [2]: induced down-regulation

Substance: 1-38: peptide covering amino acids 1-38 of the wild-type sequence of Tat (MEPVDPRLEPWKHPGSQPKTACTNCYCKKCCFHCQVCF; UniProt P04608 1-38, looked up, fragment)
- LMP2 expression in total cell lysates [2]: no discernable effect

Substance: 21-58: peptide covering amino acids 21-58 of the wild-type sequence of Tat (ACTNCYCKKCCFHCQVCFITKALGISYGRKKRRQRRRA; UniProt P04608 21-58, looked up, fragment)
- LMP2 expression in total cell lysates [2]: no discernable effect
